Laboratory results from patent publication US20210387973A1, “SUBSTITUTED HETEROCYCLIC COMPOUNDS AND THEIR USE AS RETINOID-RELATED ORPHAN RECEPTOR (ROR) GAMMA-T INHIBITORS” (Technische Universiteit Eindhoven, priority 2019, published 2021).
Where two headings read alike, the source gives them in different places.

Experiments:
[1] = target: T1, His6-RORγt ligand binding domain (Homo sapiens, UniProt P51449); assay: TR-FRET coactivator recruitment assay; type: biochemical; settings: for Dependence of coactivator recruitment inhibition on cholesterol: fixed concentrations of orthosteric agonist cholesterol
T1 sequence (P51449 269-508 limits assumed): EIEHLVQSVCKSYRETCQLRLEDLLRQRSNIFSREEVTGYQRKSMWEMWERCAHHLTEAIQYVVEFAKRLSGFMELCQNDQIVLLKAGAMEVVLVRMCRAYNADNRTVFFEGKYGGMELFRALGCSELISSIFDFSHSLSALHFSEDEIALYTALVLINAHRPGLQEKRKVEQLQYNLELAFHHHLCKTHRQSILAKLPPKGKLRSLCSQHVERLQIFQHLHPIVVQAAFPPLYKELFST
Procedure: In the present application the IC50 is determined according to a biochemical TR-FRET assay. […] A terbium labelled anti-His antibody (CisBio Bioassays, 61HISTLA) and D2-labelled streptavidin (CisBio Bioassays, 610SADLA) are used at the concentrations recommended by the supplier. Compounds (dissolved in DMSO) are titrated using a 2× dilution series in Corning white low volume, low binding, 384-well plates at a final volume of 10 μL The final DMSO concentration being 2% v/v throughout. […] The data is analyzed with Origin Software. The dose-response curve was fitted represented by:
Where y is the FRET ratio, A1 is the bottom asymptote, A2 is the top asymptote, p is the Hills slope and x is the ligand concentration.
The coactivator recruitment TR-FRET assay was performed in the presence of increasing fixed concentrations of cholesterol, a well characterized orthosteric agonist.
A terbium labelled anti-His antibody (CisBio Bioassays, 61HISTLA) and D2-labelled streptavidin (CisBio Bioassays, 610SADLA) were used at the concentrations recommended by the supplier. Compounds (dissolved in Dimethyl sulfoxide—DMSO) were titrated using a 2× dilution series from a highest final concentration of […] such that the final DMSO concentration was 2% v/v throughout.

His6-RORγt = target: T2, His6-RORγt (Homo sapiens, UniProt P51449); assay: Allosteric ligand displacement assay (AlexaFluor 647 probe, FRET); type: binding
T2 sequence (P51449 1-497 isoform P51449-2): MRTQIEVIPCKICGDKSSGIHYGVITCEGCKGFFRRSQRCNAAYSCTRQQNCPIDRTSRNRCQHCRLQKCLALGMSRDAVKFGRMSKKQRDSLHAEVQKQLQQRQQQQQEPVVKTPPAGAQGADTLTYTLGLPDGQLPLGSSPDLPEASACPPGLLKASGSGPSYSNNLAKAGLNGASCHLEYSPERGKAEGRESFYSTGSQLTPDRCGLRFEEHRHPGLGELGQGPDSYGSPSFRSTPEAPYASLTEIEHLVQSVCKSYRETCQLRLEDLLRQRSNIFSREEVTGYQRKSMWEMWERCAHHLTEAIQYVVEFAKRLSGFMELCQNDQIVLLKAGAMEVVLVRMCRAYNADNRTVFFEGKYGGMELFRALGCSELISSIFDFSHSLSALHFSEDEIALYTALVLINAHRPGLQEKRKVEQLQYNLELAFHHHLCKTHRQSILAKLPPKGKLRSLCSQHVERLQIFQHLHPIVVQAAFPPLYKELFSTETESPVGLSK
Description: To provide further evidence for allosteric ligand binding we used an orthogonal assay to directly probe for allosteric ligand binding (as opposed to measuring the indirect effects on coactivator recruitment).

[2] = Table 2, cholesterol concentration of 0 μM, read-out: IC50

O=C(O)c1ccc(NCc2c(-c3c(Cl)cccc3C(F)(F)F)noc2-c2cccc(O)c2)cc1 [RD369]
IC50 [1, 2]: 6.6 µM

C[C@H]1O[C@@H](O[C@H]2[C@@H](O)C[C@H](O[C@H]3[C@@H](O)C[C@H](O[C@H]4CC[C@@]5(C)[C@H](CC[C@@H]6[C@@H]5C[C@@H](O)[C@]5(C)[C@@H](C7=CC(=O)OC7)CC[C@]65O)C4)O[C@@H]3C)O[C@@H]2C)C[C@H](O)[C@@H]1O [Compound C, reference compound]
Hill slope ([1]; 0 μM Cholesterol): −0.53 ± 0.03
IC50 ([1]; 0 μM Cholesterol, read-out: IC50): 0.774 ± 0.0816 µM
Hill slope ([1]; 0.1 μM Cholesterol): −0.54 ± 0.02
IC50 ([1]; 0.1 μM Cholesterol, read-out: IC50): 5.47 ± 0.456 µM
Hill slope ([1]; 1.0 μM Cholesterol): −0.87 ± 0.04
IC50 ([1]; 1.0 μM Cholesterol, read-out: IC50): 32.4 ± 1.69 µM
IC50 ([1]; as listed beside probe competition (0 μM cholesterol values), read-out: Coactivator Recruitment IC50): 0.774 ± 0.0816 µM
Dependence of coactivator recruitment inhibition on cholesterol [1]: cholesterol-dependent activity profile
IC50 (His6-RORγt; displacement of Alexa Fluor 647 probe, read-out: AlexaFluor Probe Competition IC50): > 5 µM
IC50 (His6-RORγt; read-out: IC50 for displacement of the Alexa Fluor 647 probe): > 50 µM

O=C(O)c1ccc(S(=O)(=O)Nc2c(-c3c(Cl)cccc3C(F)(F)F)noc2-c2ccccc2)cc1 [GV031]
IC50 [1, 2]: 62.6 µM

O=C(O)c1ccc(NCc2c(-c3c(Cl)cccc3C(F)(F)F)noc2-c2cc[nH]c2)cc1 [Compound 1]
Hill slope ([1]; 0 μM Cholesterol): −0.45 ± 0.02
Hill slope ([1]; 0.1 μM Cholesterol): −0.74 ± 0.03
Hill slope ([1]; 1.0 μM Cholesterol): −0.86 ± 0.03
Dependence of coactivator recruitment inhibition on cholesterol [1]: independent of increasing concentrations of cholesterol

O=C(O)c1ccc(CNC(=O)c2c(-c3c(Cl)cccc3C(F)(F)F)noc2-c2ccccc2)cc1 [RD065]
IC50 [1, 2]: 8.8 µM

O=C(O)c1ccc(NCc2c(-c3c(Cl)cccc3C(F)(F)F)noc2-c2cccs2)cc1 [RD329]
IC50 [1, 2]: 1.8 µM

O=C(O)c1ccc(/N=C/c2c(-c3c(Cl)cccc3C(F)(F)F)noc2-c2cc[nH]c2)cc1 [AS89]
IC50 [1, 2]: 46.6 µM

O=C(O)c1ccc(NC(=O)c2c(-c3c(Cl)cccc3C(F)(F)F)noc2-c2ccccc2)cc1F [RD082]
IC50 [1, 2]: 91.1 µM

O=C(O)c1cccc(NC(=O)c2c(-c3c(Cl)cccc3C(F)(F)F)noc2-c2ccccc2)c1 [RD061]
IC50 [1, 2]: 73.9 µM

O=C(O)c1ccc(-c2c(-c3c(Cl)cccc3C(F)(F)F)noc2-c2ccccc2)cc1 [GV020]
IC50 [1, 2]: 8.2 µM

O=C(O)c1ccc(NCc2c(-c3c(Cl)cccc3C(F)(F)F)noc2-c2ccccc2)cc1 [GV068]
IC50 [1, 2]: 9.6 µM

O=C(O)c1ccc(NC(=O)c2c(-c3c(Cl)cccc3C(F)(F)F)noc2-c2ccccc2)cc1 [RD032]
IC50 [1, 2]: 53.5 µM

O=C(O)c1ccc(NCc2c(-c3c(Cl)cccc3C(F)(F)F)noc2-c2ccco2)cc1 [RD149]
IC50 [1, 2]: 1.1 µM

O=C(O)c1ccc(CNc2c(-c3c(Cl)cccc3C(F)(F)F)noc2-c2ccccc2)cc1 [GV032]
IC50 [1, 2]: 30.9 µM
